According to publication PMC2791885 (Journal of nuclear medicine : official publication, Society …, 2009):

What was measured:
[1] = test system: PDE4; experiment: PET compartmental modeling of brain and plasma data
[2] = ultrafiltration, 5 control animals; cited from earlier work
[3] = transient equilibrium, range over scans

SMILES: COc1ccc([C@@H]2CNC(=O)C2)cc1OC1CCCC1 [(R)-rolipram]
- concentration of free radioligand calculated with Equation 2 ([1]; baseline scans): 0.08 to 0.17 nM
- concentration of free radioligand calculated with Equation 2 ([1]; partially blocked scans): 0.29 to 3.00 nM
- calculated concentration of free ligand in brain [1, 3]: 0.07 to 5.68 nM
- calculated concentration of specifically bound ligand in brain [1, 3]: 3.63 to 88.3 nM
- plasma-free fraction (fP) [2]: 30.5% ± 3.1
